Here are results for two compounds from PMC8587999, “Assessment of the Activity of Decoquinate and Its Quinoline-O-Carbamate Derivatives against Toxoplasma gondii In Vitro and in Pregnant Mice Infected with T. gondii Oocysts” (Molecules, 2021).

Like-named read-outs stand apart in the source and are kept apart here.

The test system of data set [1] is T. gondii β-gal tachyzoites. As to the kind of experiment: IC50 determination with T. gondii β-gal tachyzoites grown in HFF monolayers. The following applies: for IC50: Toxoplasma gondii. Format: cell-based, Toxoplasma gondii. The procedure:
The efficacy of DCQ in vitro was determined using T. gondii β-gal constitutively expressing β-galactosidase grown in HFF monolayers. […] The low IC50 values and the low degree of cytotoxicity against HFF host cells in vitro encouraged us to examine the efficacy of oral treatment of CD1 mice infected with T. gondii oocysts with DCQ at 10 mg/kg/day for 5 days.
Due to the negative effects of treatment with DCQ, we investigated the efficacy in vitro of the three DCQ derivatives RMB054, RMB055 and RMB060 (Figure 1) in comparison to DCQ. Different concentrations of DCQ and the derivatives in DMSO were added to HFF either concomitantly with infection of T. gondii-β-gal tachyzoites, or 3 h after infection. […] The corresponding dose-response curves are shown in Supplementary Materials Figure S1. The viability of uninfected HFF was not impaired by the compounds up to concentrations of 5 µM (DCQ and RMB054) or 10 µM (RMB055, RMB060) (Table 1).
(§1) HFF cytotoxicity assessments and IC50 determinations using cultures of Tg-β-gal tachyzoites grown in HFF were carried out as described previously. IC50 values were calculated with the logit-log-transformation of the relative growth and subsequent regression analysis was done with the corresponding software tool contained in Microsoft Excel software package (Microsoft, Seattle, WA). For the long-term treatments, HFF grown in T25 culture flasks were infected with 5 × 10^5 TgMe49 tachyzoites, and after 4.5 h 0.5 μM DCQ, RMB054 or RMB060 were added. Infected cultures treated with the highest corresponding concentration of DMSO (0.5%) served as controls. Prolonged treatments for up to 24 days were carried out, with the addition of fresh medium containing the respective drug every 3–4 days. Cultures were inspected by light microscopy on a daily basis. On days 3, 6, 9, 13, 16, 20 and 24, the compound-containing medium was removed, and parasites were maintained without drug pressure until host cell lysis (plaque formation) was evident.

Data set [2] relates to human foreskin fibroblasts (HFF). As to the kind of experiment: HFF cytotoxicity assessment. It is filed as cell-based. The settings on record: for IC50: Homo sapiens, Fibroblast, uninfected HFF, no decline in viability over the concentration range. The procedure:
as §1

Data set [3] is described as follows: Pregnancy interference test in non-infected BALB/c mice. The settings on record: for No. of Non-Pregnant Mice/No. of Mice / No. of Pregnant Mice/No. of Mice: non-infected BALB/c; for Litter Size: total pups per group. Format: in vivo. The procedure: Eighteen female and 9 male BALB/c mice, all 8 weeks of age, were used. The females were oestrus-synchronized for 3 days by the Whitten effect and were mated by housing 2 females and 1 male for 72 h in one cage. Males were removed after mating and females were randomly assigned to 3 experimental groups of 6 mice each: DCQ; RMB060; placebo. On days 9–13 post-mating, DCQ and RMB060 were supplied at 10 mg/kg/day in 100 μL corn oil by oral gavage. The placebo group only received corn oil. Mice were observed and weighed on several days and on day 18, post-mating pregnant females were separated into single cages. […] Dams and pups were observed daily and data on fertility, litter size, neonatal and postnatal mortality was recorded for the following 2 weeks. All mice were euthanized in a chamber by isoflurane/CO2 inhalation.

The subject of data set [4] is T. gondii Me49 tachyzoites. As to the kind of experiment: Long-term drug treatment of TgMe49-infected HFF in vitro. Format: cell-based, Toxoplasma gondii. The procedure: as §1, with “Prolonged treatments for up to 24 days were carried out, with the addition of fresh medium containing the respective drug every 3–4 days.” left out
The test system of data set [5] is T. gondii Me49 tachyzoites. As to the kind of experiment: TEM of T. gondii Me49 tachyzoites cultured in HFF under drug treatment. Format: cell-based, Toxoplasma gondii. On the procedure:
For transmission electron microscopy (TEM), HFF grown in T25 culture flasks were infected with 10^7 TgMe49 tachyzoites and incubated for 3 h at 37 °C and 5% CO2. Subsequently, cultures were exposed to continuous treatment of 6h, 24 h, 48 h, and 72 h with 0.5 μM DCQ, RMB054 or RMB060, and 1 µM RMB055. Infected cultures treated with DMSO served as controls. TEM preparations were performed as described earlier. Samples were observed on a Philips CM 12 (Philips Research, Eindhoven, Holland) or a FEI Tecnai Spirit BioTwin TEM (TESCAN GmbH, Dormund, Germany), both operating at 80 kV.

In data set [6] the test system is BAG1 (bradyzoite antigen 1) expression in T. gondii Me49. As to the kind of experiment: Immunofluorescence staining for BAG1 expression in TgMe49-infected HFF. The following applies: treatment for 48 h. Format: cell-based, Toxoplasma gondii. On the procedure:
For immunofluorescence microscopy, 4 × 10^4 HFF were grown on glass coverslips for 24 h to form a sub-confluent monolayer and were exposed to 1.2 × 10^5 TgMe49 tachyzoites during 4 h at 37 °C and 5% CO2. The medium was replaced and supplemented with 20 nM DCQ and RMB060, or medium containing DMSO as control. Cultures infected with TgPgSp1 (low passage number) served as positive control for BAG1 (bradyzoite antigen 1) expression. Infected cells were cultured for 16 h, 24 h, and 48 h and fixed and labelled for immunofluorescence staining as described previously. A polyclonal rabbit anti-BAG1 antiserum was applied at 1:200 dilution, followed by a goat-anti-rabbit fluorescein-isothiocyanate conjugate (1:300), the monoclonal mouse anti-TgSAG1 antibody was diluted (1:100), followed by goat anti-mouse conjugated to tetramethylrhodamine-isothiocyanate at 1:300. Subsequently, samples were mounted in H-1200 Vectashield mounting medium (Vector Laboratories, Burlingame, CA, USA) containing 4,6-diamidino-2-phenylindole and were viewed on a Nikon E80i fluorescence microscope (Tokyo, Japan). Processing of images was performed using Openlab 5.5.2 (Improvision, PerkinElmer, Waltham, MA, USA) and the ImageJ software, version 1.53 m.

The subject of data set [7] is T. gondii. The settings on record: cited from earlier work.
For data set [8], the system named is liver stage of Plasmodium berghei malaria parasites. Set-up: method as in doi:10.1038/s42004-018-0062-7. The settings on record: cited from earlier work.
Setting [9] is: HFF vs T. gondii, compound applied prior to / concomitantly with infection.
The mark [10] stands for this setting: Tg-β-gal in HFF, compound added 3 h post-infection, [upper, lower limit of 95% CI], read-out: IC50 T. gondii (nM) [LS, LI] Compound Added 3 h Post-infection.
Where [11] appears, read: Tg-β-gal in HFF, compound added prior to / concomitantly with infection, [upper, lower limit of 95% CI], read-out: IC50 T. gondii (nM) [LS, LI] Compound Added Prior to Infection.
[12] abbreviates: short-term growth assays, added with infection or 3 h after, read-out: IC50 T. gondii, range depending on the time point of initiation of treatment.
Where [13] appears, read: 10 mg/kg/day oral, days 9–13 post-mating.

Consider `CCCCCCCCCCOc1cc2c(O)c(C(=O)OCC)cnc2cc1OCC` [DCQ, ethyl 6-decyloxy-7-ethoxy-4-oxo-1H-quinoline-3-carboxylate], for which, in data set [1] (setting [9]), the “Selectivity Index” value is over 4545. Moreover, the IC50 in data set [1] (setting [10]) is 4.7 nM; in data set [1] (setting [11]), 1.1 nM; in data set [1] (setting [12]), 1.1 to 4.7 nM; in data set [2], over 5000 nM; in data set [7] (read-out: IC50, inhibition of T. gondii proliferation in vitro), 12 nM. The “Concentration up to which viability of uninfected HFF was not impaired” value in data set [2] is given as 5 µM. Further, the Interference in pregnancy result in data set [3] (setting [13]) is “strong interference in pregnancy outcome”. Further, the “Neonatal Mortality” value in data set [3] (female, BALB/c, mouse, in vivo, po, 10 mg/kg/day) is recorded as 0/7. Also, in data set [3] (setting [13]), the “No. of Non-Pregnant Mice/No. of Mice” value is recorded as 4/6. For the same compound, the “No. of Pregnant Mice/No. of Mice” value in data set [3] (setting [13]) is 2/6. Further, the “Litter Size” value in data set [3] (setting [13]) is 7. Besides, the “Parasiticidal effect after long-term treatment” value in data set [4] (500 nM, 52 days) is listed as “no parasiticidal effect”. For the same compound, the “Parasiticidal effect in long-term treatment assays” value in data set [4] (up to 500 nM per day for 24 days) is “not parasiticidal”. The “Ultrastructural alterations of the parasite mitochondrion (TEM)” value in data set [5] (within 24 h) is “distinct alterations in the parasite mitochondrion”. For the same compound, the “Expression of the bradyzoite marker BAG1” value in data set [6] is “induced the expression of BAG1”. Besides, the “Effect of treatment of infected cultures, T. gondii RH strain” value in data set [7] (240 nM) is recorded as “tissue cyst formation”.
Take `CCCCCCCCCCOc1cc2c(OC(=O)N3CCN(S(C)(=O)=O)C3=O)c(C(=O)OCC)cnc2cc1OCC` [RMB060]: the “Selectivity Index” value in data set [1] (setting [9]) is >142,857. Also, in data set [1] (T. gondii tachyzoites in HFF), the “Concentration that caused a complete growth inhibition in dose response assays” value was 500 nM. In addition, the IC50 in data set [1] (setting [10]) came out at 0.7 nM. In addition, the IC50 in data set [1] (setting [11]) is 0.07 nM. The IC50 in data set [1] (setting [12]) lay within 0.07 to 0.7 nM. Moreover, the Selectivity Index in data set [1] (compound added to intracellular parasites at 3 h post-infection) is reported as > 14,000. Moreover, in data set [2], the “Concentration up to which viability of uninfected HFF was not impaired” value amounted to 10 µM and the IC50 is over 10000 nM. In data set [3] (setting [13]), the Interference in pregnancy result is given as “only minor interference in pregnancy”, the “Postnatal Mortality” value is on record as 0/24, the “No. of Non-Pregnant Mice/No. of Mice” value is 2/6 and the “No. of Pregnant Mice/No. of Mice” value is 4/6. For the same compound, in data set [3] (setting [13]), the “Litter Size” value amounted to 27. Moreover, the “Neonatal Mortality” value in data set [3] (first 2 days post-partum, 10 mg/kg/day oral, days 9–13 post-mating) is 3/27. Besides, the “Killing of tachyzoites after long-term exposure” value in data set [4] (300 nM for 52 days) is listed as “did not result in the complete killing of all tachyzoites”. Also, the “Concentration to which tachyzoites adapted, fold the IC50” value in data set [4] (exposure for longer timespans, parasites resumed proliferation and formed lysis plaques) was “up to 4286 fold”. Also, the “Ultrastructural alterations of the parasite mitochondrion (TEM)” value in data set [5] (500 nM for 6 h, treatment started 3 h after infection) is “mitochondrial matrix had a less electron dense appearance and dissolved cristae became evident”. Besides, the “Expression of the bradyzoite marker BAG1” value in data set [6] is on record as “expression of the bradyzoite marker BAG1 in the cytoplasm of some, but not all, parasites”. In addition, the IC50 in data set [7] (read-out: previously reported IC50 against T. gondii) was 1.1 nM. The “Activity against the liver stage of Plasmodium berghei” value in data set [8] is given as “highly active”.
